Laboratory results taken from US7129250B2, “Neuroprotective and anti-proliferative compounds” (Aegera Therapeutics Inc., priority 2000, dated 2006).

Assays:
CGNs [1] = assay: Cisplatin Killing of CGNs; assay type: cell-based, CD1 mice; conditions: for IC50: assayed 48 hours after final drug treatment
Protocol: Cisplatin has been used extensively in the treatment of various cancers. One dosblimiting side effect of this chemotherapeutic agent is related to hearing loss as a result of its toxicity to auditory neurons and loss of feeling in the extremities. Cisplatin induces apoptosis to both cultured CGN and cortical neurons.
CGNs were harvested from day 8/9 post-natal CD1 mice, plated on Poly-D-Lycine coated plates and incubated for 6 days at 37° C. under 5% CO2. The cells were treated with media containing drug and cisplatin […].

CGNs [2] = assay: High/Low Potassium (HK/LK) assay in CGNs; assay type: cell-based; conditions: HK/LK switch, drug 24 h pre-treatment, assayed 16 h after media change, concentration at which cell death was inhibited by 50%
Protocol: Cultured CGNs which are maintained in a medium containing 26 mM potassium (high K^+ or HK) undergo cell death when the medium is changed to one containing 5 mM potassium (low K^+ or LK). HK maintains the cells in a highly polarized state, duplicating that of fully innervated neurons. The switch to LK (5 mM is more representative of physiological conditions) results in depolarization of the cells, mimicking the loss of neuronal conductivity. […] As these killer genes are turned on by various types of neuronal insult as observed in AD, PD, and stroke, HK/LK is a general in vitro model for neuronal degradation, blanketing a wide range of neurodegenerative diseases. Compounds that protect against HK/LK in CGNs would therefore be efficacious in treatment and/or prevention of various neurodegenerative disease states.
CGNs were harvested from day 8/9 post-natal CD1 mice, plated on Poly-D-Lycine coated plates and incubated for 6 days at 37° C., with […] potassium, under 5% CO2. Pretreated cells were treated with drug 24 hours prior to changing the media to one containing […] potassium and drug. Cells were assayed 16 hours after the final media change using cell TITER96 (Promega).

HIAP1 mRNA in LAN5 cells = assay: LAN5 HAIP1 Down Regulators (RNA levels); assay type: cell-based; conditions: HIAP1 RNA level vs control = 1.0; 24 hours drug
Protocol: LAN5 cells were grown in growth media. Cells were plated at cells 50,000 per well in 96 cells per 96 wells. Five days latter drug was added and the cells were liced 24 hours latter using RLT buffer.

CGNs [3] = assay: Ceramide Killing of CGNs; assay type: cell-based, CD1 mice; conditions: ceramide 100 uM
Description: Ceramide is a native […] found in most mammalian and human cells. The upregulation of endogenous ceramide has been linked to caspase 1 (ICE) induced apoptosis (Suzuki, A. et al. Exp. Cel. Res., 1997, 233, 41). In a similar fashion, the addition of ceramide to cultured CGNs results in caspase induced apoptosis, and is therefore considered an effective in vitro model for the various neurodegenerative diseases described above, which are characterized by caspase induced apoptosis, as observed in stroke models. Addition of selected compounds of the formula I through III, 24 hours prior to the addition of ceramide, to cultured CGNs provided protection against apoptosis, with 10 to 20% of the cells being saved at 1–10 μM drug concentrations (see Example 114).
CGNs were harvested from day 8/9 post-natal CD1 mice, plated on Poly-D-Lycine coated plates and incubated for 6 days at 37° C. under 5% CO2. Cells were pretreated with drug 24 hours prior to ceramide (100 uM) and drug addition.

SHSY-5Y cells = assay: Etoposide Killing of SHSY-5Y; assay type: cell-based; conditions: etoposide 32 uM
Protocol: SHSY-5Y cells were grown in growth media. Cells are placed at 50,000 cells per 96 well. Four days latter the cells were treated with drug for 48 hours prior to etoposide (32 uM) treatment. On day 6 media was changed to that containing etoposide and drug for 4 hours, at which point the media was changed to media containing drug only. Cells are allowed to survive overnight and then assessed for viability with metabolic activity measured (WST-1-Beohringer Mannheime), as shown in TABLE 13.

Jurkat cells = assay: Killing of cultured Jurkats with and without anti-Fas; assay type: cell-based, Human; conditions: for Survival % With Anti-Fas: with anti-Fas (5 ng/mL)
Protocol: Jurkats are a T-cell derived lymphoma cell line which expresses both FAS receptor and Fas-L. These cells, however, are only mildly sensitive to Fas-L/anti-Fas induced apoptosis. Select compounds were tested for their ability to kill Jurkats. Additionally, we investigated the ability of select compounds to sensitize the Jurkats to anti-Fas mediated apoptosis.
Human lymphoma jurkat cells were cultured in suspension in 24 well plates. Jurkat cell were treated with test compounds either alone or in the presence of suboptimal doses of anti-Fas antibody. After 18 hours of treatment cell death was assessed by Facs. Cells were incubated with propidium iodide and the percentage of cells that incorporated the stain was counted by Facs.

COc1ccc2c(ccn2C2=C(c3c[nH]c4ccccc34)C(=O)NC2=O)c1 [Compound 3, 3-(5-Methoxyindol-1-yl)-4-(1H-indol-3-yl)-1H-pyrrole-2,5-dione]
IC50 (CGNs [1]; Mus musculus): 10 µM

COc1ccc2c(c1)CC1c3[nH]c4ccccc4c3C3=C(C(=O)NC3=O)N21 (stereo not drawn) [Compound 34]
IC50 (CGNs [2]): 10 µM
IC50 (CGNs [1]): 10 µM

COc1ccc2c(c1)cc1c3[nH]c4ccccc4c3c3c(n21)C(=O)NC3=O [Compound 48]
IC50 (CGNs [2]): 3 µM
IC50 (CGNs [1]): 10 µM

O=C1C=C(c2c[nH]c3ccc(Br)cc23)C(=O)N1 [Compound 56, 3-(1H-5-bromoindol-3-yl)-1H-pyrrole-2,5-dione]
Fold Induction (HIAP1 mRNA in LAN5 cells): 0.31

O=C1C=C(c2cn(C(=O)c3ccccc3)c3ccc(Br)cc23)C(=O)N1 [Compound 59, 3-(N-benzoyl-5-bromoindol-3-yl)-1H-pyrrole-2,5-dione]
Fold Induction (HIAP1 mRNA in LAN5 cells): 0.40

Cc1ccc(S(=O)(=O)n2cc(C3=CC(=O)NC3=O)c3cc(Br)ccc32)cc1 [Compound 60, 3-(N-(p-toluenesulfoiiyl)-5-bromoindol-3-yl)-1H-pyrrole-2,5-dione]
IC50 (CGNs [2]): 10 µM
Fold Induction (HIAP1 mRNA in LAN5 cells): 0.13

O=C1C=C(c2cn(S(=O)(=O)c3cccc4ccccc34)c3ccc(Br)cc23)C(=O)N1 [Compound 61, 3-(N-(1-naphthylenesulfonyl)-5-bromoindol-3-yl)-1H-pyrrole-2,5-dione]
Fold Induction (HIAP1 mRNA in LAN5 cells): 0.16
% CGN Survival (CGNs [3]; drug 100 nM): 0%
% CGN Survival (CGNs [3]; drug 1 μM): 5.1%

O=C1C=C(c2cn(S(=O)(=O)c3ccc4ccccc4c3)c3ccc(Br)cc23)C(=O)N1 [Compound 62, 3-(N-(2-naphthylenesulfonyl)-5-bromoindol-3-yl)-1H-pyrrole-2,5-dione]
Fold Induction (HIAP1 mRNA in LAN5 cells): 0.18

CN(C)c1cccc2c(S(=O)(=O)n3cc(C4=CC(=O)NC4=O)c4cc(Br)ccc43)cccc12 [Compound 63, 3-(N-dansyl-5-bromoindol-3-yl)-1H-pyrrole-2,5-dione]
Fold Induction (HIAP1 mRNA in LAN5 cells): 0.22

CC(C)(C)OC(=O)NCC(=O)n1cc(C2=CC(=O)NC2=O)c2cc(OCc3ccccc3)ccc21 [Compound 69, 3-(N-(N-Boc-2-aminoacetyl)-5-benzyloxyindol-3-yl)-1H-pyrrole-2,5-dione]
% SHSY-5Y cell survival (SHSY-5Y cells; drug 1 μM): 5.6%

Cc1ccc(S(=O)(=O)n2cc(C3=CC(=O)NC3=O)c3cc(OCc4ccccc4)ccc32)cc1 [Compound 70, 3-(N-tosyl-5-benzyloxyindol-3-yl)-1H-pyrrole-2,5-dione]
Fold Induction (HIAP1 mRNA in LAN5 cells): 0.21
% SHSY-5Y cell survival (SHSY-5Y cells; drug 10 μM): 7.6%

O=C1C=C(c2cn(S(=O)(=O)c3ccc([N+](=O)[O-])cc3)c3ccc(OCc4ccccc4)cc23)C(=O)N1 [Compound 71, 3-(N-(4-nitrobenzenesulfonyl)-5-benzyloxyindol-3-yl)-1H-pyrrole-2,5-dione]
% SHSY-5Y cell survival (SHSY-5Y cells; drug 10 μM): 26.4%

O=C1C=C(c2cn(Cc3ccccc3)c3ccc(OCc4ccccc4)cc23)C(=O)N1 [Compound 73, 3-(N-benzyl-5-benzyloxyindol-3-yl)-1H-pyrrole-2,5-dione]
% SHSY-5Y cell survival (SHSY-5Y cells; drug 10 μM): toxic

O=C1C=C(c2cn(Cc3ccc(F)cc3)c3ccc(OCc4ccccc4)cc23)C(=O)N1 [Compound 77, 3-(N-(4-fluorobenzyl)-5-benzyloxyindol-3-yl)-1H-pyrrole-2,5-dione]
IC50 (CGNs [2]; Mus musculus): 10 µM

O=C1C=C(c2cn(S(=O)(=O)c3ccccc3[N+](=O)[O-])c3ccccc23)C(=O)N1 [Compound 95, 3-(N-(2-nitrobenzenesulfonyl)indol-3-yl)-1H-pyrrole-2,5-dione]
IC50 (CGNs [2]; Mus musculus): 10 µM

O=C1C=C(c2cn(S(=O)(=O)c3ccc([N+](=O)[O-])cc3)c3ccccc23)C(=O)N1 [Compound 96, 3-(N-(4-nitrobenzenesulfonyl)indol-3-yl)-1H-pyrrole-2,5-dione]
IC50 (CGNs [2]; Mus musculus): 10 µM

O=C1C=C(c2c[nH]c3ccc(Cl)cc23)C(=O)N1 [Compound 99, 3-(1H-5-chloroindol-3-yl)-1H-pyrrole-2,5-dione]
% SHSY-5Y cell survival (SHSY-5Y cells; drug 10 μM): 4.7%

O=C1NC(=O)C(n2ccc3ccccc32)=C1c1cn(CCCO)c2ccccc12 [Compound 121]
% SHSY-5Y cell survival (SHSY-5Y cells; drug 1 μM): 5.5%

N=C(N)SCCCn1c2ccccc2c2c3c(n4c5ccccc5cc4c21)C(=O)NC3=O [Compound 145]
Survival % With Anti-Fas (Jurkat cells; compound dose 3 (μM)): 34.9%
Survival % Without Anti-Fas (Jurkat cells; compound dose 3 (μM)): 92.44%
Survival % Without Anti-Fas (Jurkat cells; compound dose 10 (μM)): 11%

Cc1cn(C2=C(c3cn(CCCSC(=N)N)c4ccccc34)C(=O)NC2=O)c2ccccc12 [Compound 146]
Survival % With Anti-Fas (Jurkat cells; compound dose 3 (μM)): 19.7%
Survival % Without Anti-Fas (Jurkat cells; compound dose 3 (μM)): >90%
Survival % Without Anti-Fas (Jurkat cells; compound dose 10 (μM)): 0%

N=C(N)SCCCn1cc(C2=C(n3ccc4cc(OCc5ccccc5)ccc43)C(=O)NC2=O)c2ccccc21 [Compound 147]
Survival % With Anti-Fas (Jurkat cells; compound dose 3 (μM)): 19.7%
Survival % Without Anti-Fas (Jurkat cells; compound dose 3 (μM)): >90%
Survival % Without Anti-Fas (Jurkat cells; compound dose 10 (μM)): 0%

N=C(N)SCCCn1cc(C2=C(n3ccc4ccccc43)C(=O)NC2=O)c2cc(OCc3ccccc3)ccc21 [Compound 148]
Survival % Without Anti-Fas (Jurkat cells; compound dose 3 (μM)): >90%
Survival % With Anti-Fas (Jurkat cells; compound dose 10 (μM)): 19.7%
Survival % Without Anti-Fas (Jurkat cells; compound dose 10 (μM)): 0%

Cc1cn(C2=C(c3cn(CCCSC(=N)N)c4ccc(OCc5ccccc5)cc34)C(=O)NC2=O)c2ccccc12 [Compound 149]
Survival % With Anti-Fas (Jurkat cells; compound dose 3 (μM)): 2.00%
Survival % Without Anti-Fas (Jurkat cells; compound dose 3 (μM)): >90%
Survival % Without Anti-Fas (Jurkat cells; compound dose 10 (μM)): 0%

Cc1cc2ccccc2n1C1=C(c2cn(CCCSC(=N)N)c3ccc(OCc4ccccc4)cc23)C(=O)NC1=O [Compound 150]
Survival % With Anti-Fas (Jurkat cells; compound dose 3 (μM)): 4.49%
Survival % Without Anti-Fas (Jurkat cells; compound dose 3 (μM)): >90%
Survival % Without Anti-Fas (Jurkat cells; compound dose 10 (μM)): 0%

N=C(N)SCCCn1cc(C2=C(N3CCc4ccccc43)C(=O)NC2=O)c2ccccc21 [Compound 159]
Survival % With Anti-Fas (Jurkat cells; compound dose 3 (μM)): 9.48%
Survival % Without Anti-Fas (Jurkat cells; compound dose 3 (μM)): >90%
Survival % Without Anti-Fas (Jurkat cells; compound dose 10 (μM)): 17.38%

Cn1cc(C2=C(n3cc(CCCSC(=N)N)c4ccccc43)C(=O)NC2=O)c2ccccc21 [Compound 167]
Survival % With Anti-Fas (Jurkat cells; compound dose 0.3 (μM)): 43.3%
Survival % Without Anti-Fas (Jurkat cells; compound dose 0.3 (μM)): 97.7%
Survival % With Anti-Fas (Jurkat cells; compound dose 1 (μM)): 16.7%
Survival % Without Anti-Fas (Jurkat cells; compound dose 1 (μM)): 88.3%
Survival % With Anti-Fas (Jurkat cells; compound dose 3 (μM)): 4.9%
Survival % Without Anti-Fas (Jurkat cells; compound dose 3 (μM)): 50.3%
Survival % With Anti-Fas (Jurkat cells; compound dose 10 (μM)): 0%
Survival % Without Anti-Fas (Jurkat cells; compound dose 10 (μM)): 0%
Survival % With Anti-Fas (Jurkat cells; compound dose 30 (μM)): 0%
Survival % Without Anti-Fas (Jurkat cells; compound dose 30 (μM)): 0%

Cn1cc(C2=C(n3cc(CCCSC(=N)N)c4ccccc43)C(=O)NC2=O)c2cc(OCc3ccccc3)ccc21 [Compound 168]
Survival % With Anti-Fas (Jurkat cells; compound dose 0.3 (μM)): 49.0%
Survival % Without Anti-Fas (Jurkat cells; compound dose 0.3 (μM)): 90.7%
Survival % With Anti-Fas (Jurkat cells; compound dose 1 (μM)): 48.6%
Survival % Without Anti-Fas (Jurkat cells; compound dose 1 (μM)): 89.3%
Survival % With Anti-Fas (Jurkat cells; compound dose 3 (μM)): 1%
Survival % Without Anti-Fas (Jurkat cells; compound dose 3 (μM)): 46.1%
Survival % With Anti-Fas (Jurkat cells; compound dose 10 (μM)): 0%
Survival % Without Anti-Fas (Jurkat cells; compound dose 10 (μM)): 1.2%
Survival % With Anti-Fas (Jurkat cells; compound dose 30 (μM)): 0%
Survival % Without Anti-Fas (Jurkat cells; compound dose 30 (μM)): 0%

COc1ccc2[nH]cc(CCNC(C)=O)c2c1 [melatonin, Melatonin, reference compound]
protection of CGNs (CGNs [1]; high doses): protect CGNs
